Results on 13 compounds are retold here after ChEMBL document CHEMBL1155519, “Discovery of N-phenyl-4-(thiazol-5-yl)pyrimidin-2-amine aurora kinase inhibitors” (J Med Chem, 2010).

pIC50, pKi: −log10 of the molar value. Calls of active or inactive are those of the source. No cut-off for these calls is given here.

Assay [1] deals with Cyclin-dependent kinase 7 (Homo sapiens, UniProt P50613). Briefly: Inhibition of CDK7.
The test system of assay [2] is A2780. Briefly: Cytotoxicity against human A2780 cells after 96 hrs by MTT assay. As to conditions: A2780, 96 h. It is filed as functional, cell-based. (Tetrazolium dyes change colour on reduction, which living cells bring about.)
Assay [3] deals with Aurora kinase B (Homo sapiens, UniProt Q96GD4). Briefly: Inhibition of human recombinant Aurora B after 60 mins.
Aurora kinase B, sequence (Q96GD4 whole entry): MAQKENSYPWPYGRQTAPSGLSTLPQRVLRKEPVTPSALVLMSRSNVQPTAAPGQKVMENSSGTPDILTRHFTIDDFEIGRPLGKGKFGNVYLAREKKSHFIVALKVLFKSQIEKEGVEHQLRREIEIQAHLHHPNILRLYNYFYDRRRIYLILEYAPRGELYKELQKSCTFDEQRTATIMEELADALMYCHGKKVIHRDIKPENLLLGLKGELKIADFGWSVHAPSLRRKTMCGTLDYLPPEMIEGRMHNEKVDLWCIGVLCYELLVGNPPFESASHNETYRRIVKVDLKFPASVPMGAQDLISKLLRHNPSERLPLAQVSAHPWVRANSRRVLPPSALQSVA
In assay [4] the test system is MIA PaCa-2. Briefly: Cytotoxicity against human MIAPaCa2 cells after 96 hrs by MTT assay. It is filed as functional, cell-based. As to conditions: MIA PaCa-2, 96 h.
For assay [5], the system named is MCF7. Briefly: Induction of p53 protein expression in human MCF7 cells at 0.07 to 10 uM after 7 hrs by fluorescent microscopy. The format is functional, cell-based.
Assay [6] concerns the target T1, Aurora kinase A (Homo sapiens, UniProt O14965).
T1 sequence (O14965 whole entry): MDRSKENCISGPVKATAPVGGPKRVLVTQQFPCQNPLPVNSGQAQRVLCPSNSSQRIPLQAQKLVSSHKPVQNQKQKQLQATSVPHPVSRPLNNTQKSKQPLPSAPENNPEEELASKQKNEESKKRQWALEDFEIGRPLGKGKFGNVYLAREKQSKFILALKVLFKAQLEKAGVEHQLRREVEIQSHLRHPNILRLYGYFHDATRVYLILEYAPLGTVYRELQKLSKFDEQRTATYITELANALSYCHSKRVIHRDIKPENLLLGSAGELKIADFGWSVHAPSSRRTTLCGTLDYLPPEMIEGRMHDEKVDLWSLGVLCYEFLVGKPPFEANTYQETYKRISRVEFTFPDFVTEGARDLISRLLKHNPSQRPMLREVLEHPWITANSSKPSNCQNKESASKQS
The assay is described as follows: Inhibition of human recombinant Aurora A after 30 mins.

Assay [7] has as its target Cyclin-dependent kinase 2 (Homo sapiens, UniProt P24941).
Assay [8] has as its target Cyclin-dependent kinase 1 (Homo sapiens, UniProt P06493). Briefly: Inhibition of CDK1.
Assay [9] has as its target Cyclin-dependent kinase 9 (Homo sapiens, UniProt P50750). Briefly: Inhibition of CDK9.
Assay [10] in a line: Inhibition of Aurora kinase in human A549 cells assessed as concentration required for half-maximal inhibition of histone H3 serine-10 phosphorylation after 7 hrs immunofluorescence microscopy. The format is cell-based. As to conditions: A549, 7 h.
Assay [11] deals with U2OS. Briefly: Inhibition of Aurora kinase in nocodazole-synchronized human U2OS cells assessed as reduction of histone H3 serine-10 phosphorylation at 0.07 to 10 uM after 2 hrs immunofluorescence microscopy. It is filed as cell-based.
The target in assay [12] is Cyclin-dependent kinase 4 (Homo sapiens, UniProt P11802). Briefly: Inhibition of CDK4.
Cyclin-dependent kinase 4, sequence (P11802 whole entry): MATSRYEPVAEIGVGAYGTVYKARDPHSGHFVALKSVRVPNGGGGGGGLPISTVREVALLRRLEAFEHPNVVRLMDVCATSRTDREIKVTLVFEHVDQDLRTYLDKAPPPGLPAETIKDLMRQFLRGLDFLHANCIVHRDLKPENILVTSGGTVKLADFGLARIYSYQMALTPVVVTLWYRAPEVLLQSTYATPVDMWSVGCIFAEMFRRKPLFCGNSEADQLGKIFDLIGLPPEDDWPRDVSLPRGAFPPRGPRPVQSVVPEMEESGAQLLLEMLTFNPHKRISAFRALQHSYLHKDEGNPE
The subject of assay [13] is U2OS. Briefly: Inhibition of Aurora kinase in asynchronous human U2OS cells assessed as reduction of histone H3 serine-10 phosphorylation at 150 nM after 7 hrs immunofluorescence microscopy. The format is cell-based.

Cyclin-dependent kinase 7, sequence (P50613 whole entry): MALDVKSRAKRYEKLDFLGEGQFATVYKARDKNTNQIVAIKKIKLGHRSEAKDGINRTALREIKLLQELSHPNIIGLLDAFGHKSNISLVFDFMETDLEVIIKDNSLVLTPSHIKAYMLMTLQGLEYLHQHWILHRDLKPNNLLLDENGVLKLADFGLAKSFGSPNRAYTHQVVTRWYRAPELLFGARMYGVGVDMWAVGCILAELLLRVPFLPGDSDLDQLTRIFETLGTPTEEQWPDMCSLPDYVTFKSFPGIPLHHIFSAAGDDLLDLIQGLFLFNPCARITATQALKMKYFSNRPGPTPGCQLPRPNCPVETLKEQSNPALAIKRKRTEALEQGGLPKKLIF
Cyclin-dependent kinase 1, sequence (P06493 whole entry): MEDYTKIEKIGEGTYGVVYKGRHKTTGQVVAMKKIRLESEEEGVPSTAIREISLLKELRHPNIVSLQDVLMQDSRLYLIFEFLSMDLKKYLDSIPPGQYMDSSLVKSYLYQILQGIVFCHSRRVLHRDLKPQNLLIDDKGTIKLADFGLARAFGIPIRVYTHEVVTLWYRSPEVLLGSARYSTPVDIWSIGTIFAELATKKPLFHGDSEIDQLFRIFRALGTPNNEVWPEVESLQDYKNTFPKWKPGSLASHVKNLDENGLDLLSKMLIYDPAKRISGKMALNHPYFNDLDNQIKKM
Cyclin-dependent kinase 9, sequence (P50750 whole entry): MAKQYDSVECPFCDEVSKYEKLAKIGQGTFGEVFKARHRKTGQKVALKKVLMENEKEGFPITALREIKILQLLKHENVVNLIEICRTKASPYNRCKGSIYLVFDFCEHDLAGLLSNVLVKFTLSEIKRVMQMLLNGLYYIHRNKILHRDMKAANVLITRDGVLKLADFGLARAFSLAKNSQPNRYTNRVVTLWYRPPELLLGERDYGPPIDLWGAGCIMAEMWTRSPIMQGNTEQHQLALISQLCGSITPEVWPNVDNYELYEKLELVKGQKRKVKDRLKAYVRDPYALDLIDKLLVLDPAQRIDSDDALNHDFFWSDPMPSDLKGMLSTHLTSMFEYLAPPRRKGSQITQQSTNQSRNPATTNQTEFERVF

For the compound `COc1cc(Nc2nccc(-c3sc(C)nc3C)n2)cc(OC)c1OC`, the pKi – broadly, −log10 of the Ki, conventionally taken in molar units – in [1] was 6.61; in assay [3] it was 8.70; in assay [6] it was 9.40; in assay [7], 6.62; in assay [8], 6.15; in [9] it was 7.96. In assay [12], this compound gave a negative logarithm of the Ki (pKi) of 6.18. For the same compound, the negative-log IC50 (pIC50) (in general, the IC50 on a negative log10 scale, so that one unit is a factor of ten) in assay [2] was 8.00; in assay [4], 7.66; in assay [10], 6.89. Moreover, the result in [5] and in [13] was inactive. Besides, the inhibition entry in assay [11] is “Active”.
As to `CNc1nc(C)c(-c2ccnc(Nc3ccc(N4CCN(C(C)=O)CC4)cc3)n2)s1`, the negative logarithm of the Ki (pKi) in assay [1] is 5.97; in assay [3], 8.01; in assay [6], 7.92; in assay [7], 6.53; in assay [8] it was 6.07; in assay [9] it was 6.35. The pKi in assay [12] is 7.66. Moreover, the pIC50 is 6.66 in assay [2] and 6.21 in [4].
With `CNc1nc(C)c(-c2ccnc(Nc3ccc(N4CCOCC4)cc3)n2)s1`, the pKi is under 5.00 in assay [1]; 8.03 in assay [3]; 7.72 in assay [6]; 6.81 in [7]; 5.41 in assay [8]; 5.58 in [9]. In [12], this compound showed a pKi of 6.03. Further, the negative logarithm of the IC50 (pIC50) in assay [2] is 6.84; in assay [4], 6.56; in assay [10], 5.43. Also, the outcome in assay [5] and in [13] was inactive. Besides, in assay [11], the inhibition entry was “Active”.
On to `Cc1nc(C)c(-c2ccnc(Nc3ccc(N4CCOCC4)cc3)n2)s1`, for which the pKi in assay [1] was under 5.00; in [3] it was 8.05; in [6], 8.40; in [7], 5.98; in assay [8], under 5.00; in assay [9], under 5.00. This compound also had a pKi in assay [12] of 5.66. The pIC50 in [2] is 6.48; in assay [4], 6.06; in assay [10], 6.07. Moreover, the result in assay [5] and in [13] was inactive. For the same compound, the inhibition result in assay [11] was “Active”.
For `CCNc1nc(C)c(-c2ccnc(Nc3cc(OC)c(OC)c(OC)c3)n2)s1`, the pKi was 5.86 in [1]; 8.22 in assay [3]; 8.52 in assay [6]; 6.33 in assay [7]; 5.91 in [8]; 6.25 in [9]. For the same compound, in assay [12], the pKi was under 5.00. Besides, the results for the negative logarithm of the IC50 (pIC50) in assay [2], in [4] and in assay [10] were 6.41, 6.00 and 5.73, respectively. Also, the outcome in assay [5] and in assay [13] was inactive. The inhibition entry in assay [11] is “Active”.
On to `CC(=O)N1CCN(c2ccc(Nc3nccc(-c4sc(N)nc4C)n3)cc2)CC1`, for which the pKi is 5.67 in assay [1]; 8.42 in [3]; 8.12 in [6]; 6.28 in [7]; under 5.00 in assay [8]; 6.58 in [9]. The compound also had a pKi in assay [12] of 5.90. The pIC50 in assay [2] is 6.62; in assay [4], 6.31; in [10] it was 6.23.
Turning to `CNc1nc(C)c(-c2ccnc(Nc3cc(OC)c(OC)c(OC)c3)n2)s1`, the pKi in [1] was 6.43; in assay [3] it was 8.52; in [6], 9.00; in assay [7], 6.59; in assay [8], 6.44; in assay [9] it was 8.22. In [12], this compound gave a negative-log Ki (pKi) of 6.02. Besides, the figures for the pIC50 in [2], in assay [4] and in assay [10] were 7.62, 7.21 and 6.55, respectively. In addition, the result in assay [5] and in assay [13] was inactive. Also, in [11], the inhibition result is “Active”.
`Cc1nc(C)c(-c2ccnc(Nc3ccc(N4CCN(S(C)(=O)=O)CC4)cc3)n2)s1`: the pKi in assay [1] was under 5.00; in assay [3], 7.74; in assay [6] it was 8.04; in assay [7] it was 5.40; in [8], under 5.00; in assay [9], 5.83. This compound gave a pKi in assay [12] of under 5.00. The pIC50 was 6.53 in assay [2], 6.22 in assay [4] and 5.95 in assay [10].
Turning to `CCNc1nc(C)c(-c2ccnc(Nc3ccc(N4CCOCC4)cc3)n2)s1`, the negative logarithm of the Ki (pKi) in assay [1] was under 5.00; in assay [3] it was 8.22; in [6], 7.85; in [7], 6.82; in assay [8], under 5.00; in assay [9], 6.25. The compound also showed a negative-log Ki (pKi) in [12] of 6.71. For the same compound, the negative-log IC50 (pIC50) is 7.09 in assay [2], 6.76 in assay [4] and 6.24 in assay [10]. Further, the outcome in assay [5] and in assay [13] was inactive. In assay [11], the inhibition result is “Active”.
On to `CNc1ccc(Nc2nccc(-c3sc(C)nc3C)n2)cc1`, for which the negative logarithm of the Ki (pKi) in [1] was 5.37; in assay [3] it was 7.48; in [6], 7.74; in assay [7] it was 6.54; in assay [8], 6.04; in assay [9] it was 6.46. In addition, the negative-log Ki (pKi) in [12] was 6.08. For the same compound, the negative logarithm of the IC50 (pIC50) in assay [2] is 6.83; in [4] it was 6.63; in assay [10], 5.75.
As for `CC(=O)N1CCN(c2ccc(Nc3nccc(-c4sc(C)nc4C)n3)cc2)CC1`, the negative-log Ki (pKi) in assay [1] is 5.55; in [3], 7.89; in [6], 8.09; in [7] it was 6.36; in assay [8], 5.72; in assay [9] it was 5.94. The compound further had a pKi in assay [12] of 6.03. The pIC50 in assay [2] is 6.52; in assay [4], 6.22; in assay [10], 6.44.
Regarding `Cc1nc(C)c(-c2ccnc(Nc3ccc(N)cc3)n2)s1`, the pKi in assay [1] is 5.59; in [6], 7.51; in assay [7], 6.77; in assay [8] it was 6.11; in assay [9] it was 6.47; in assay [12] it was 6.09. The figures for the negative logarithm of the IC50 (pIC50) in [2], in assay [4] and in [10] were 6.23, 5.91 and 6.03, respectively. In addition, the result in assay [5] was inactive. For the same compound, the inhibition entry in [11] is “Active”. The outcome in assay [13] was Active.
Turning to `CCNc1nc(C)c(-c2ccnc(Nc3ccc(CNC(C)=O)cc3)n2)s1`, the pKi was 6.77 in assay [1]; 8.40 in [3]; 8.30 in assay [6]; 7.49 in assay [7]; 6.62 in assay [8]; 8.05 in assay [9]. This compound also showed a pKi in [12] of 7.42. For the same compound, the negative-log IC50 (pIC50) in [2] was 7.09; in assay [4], 6.64; in assay [10] it was 6.12.
